# Laboratory results from patent US20220305017A1, “COMPOSITIONS AND METHODS FOR THE TREATMENT OF ESTROGEN-DEPENDENT DISORDERS” (ObsEva S.A., priority 2019, published 2022).
# What was measured:
# [1] = system: human female patients diagnosed as having endometriosis; test: Phase 2b human clinical trial in endometriosis, 24-week treatment and post-treatment follow-up; assay type: in vivo; conditions: for Bone Mineral Density (Mean % change from baseline): spine
# Experimental: This example describes the results of a Phase 2b human clinical trial undertaken to evaluate the efficacy of a GnRH antagonist represented by formula (VI) in a series of patients suffering from an estrogen-dependent disease. In this trial, a series of human female patients diagnosed as having endometriosis were administered the choline salt of 3-[2-fluoro-5-(2,3-difluoro-6-methoxybenzyloxy)4-methoxyphenyl]-2,4-dioxo-1,2,3,4-tetrahydrothieno [3,4d]pyrimidine-5-carboxylic acid periodically over the course of a 24-week treatment period. After 24 weeks of treatment, various patients entered a 24-week post-treatment follow-up period during which the patients were monitored for serum β17-estradiol (E2) concentration, severity of disease symptoms, and bone mineral density.
# A series of n=328 human female patients having clinically-diagnosed endometriosis were randomly assigned to treatment arms in which patients were to be administered placebo or the GnRH antagonist in a once-daily amount of 50 mg/day, 100 mg/day, 75 mg/day, or 200 mg/day. Patients initially treated with placebo (plc) were administered the GnRH antagonist in an amount of 100 mg/day after 12 weeks. Also, after 12 weeks, patients that were initially administered 75 mg/day were provided a higher (100 mg/day) or lower (50 mg/day) dosage of the GnRH antagonist based on the patients' E2 levels at the 12-week point. The E2 levels for this group of patients is represented by “75 mg (TD)” in FIGS. 1-3. Patients that were administered 75 mg through the end of the treatment period are represented by “75 mg (FD)” in FIGS. 1-3.
# After 24 weeks of continuous, once-daily treatment, administration of the GnRH antagonist ceased. A set of n=65 patients entered the 24-week post-treatment follow-up study. Following the 24-week treatment period, these patients were periodically monitored. The median E2 levels of patients that were administered the GnRH antagonist during the original 24-week treatment period and that subsequently entered the 24-week post-treatment follow-up study are shown in FIG. 1. FIGS. 2 and 3 show the mean change in dyspareunia and dyschezia scores for such patients over the 24-week treatment period and a 12-week portion of the post-treatment follow-up period.
# [2] = system: human female patients diagnosed as having uterine fibroids; test: PRIMROSE 2 Phase 3 placebo-controlled trial in uterine fibroids; assay type: in vivo
# Text: This example describes the results of two Phase 3, double-blind, randomized, placebo-controlled, multicenter, human clinical trials undertaken to evaluate the efficacy of the GnRH antagonist represented by formula (VI) in a series of patients suffering from uterine fibroids. In these trials, referred to herein as “PRIMROSE 1” and “PRIMROSE 2,” human female patients diagnosed as having uterine fibroids were periodically administered compound (VI), 3-[2-fluoro-5-(2,3-difluoro-6-methoxybenzyloxy)4-methoxyphenyl]-2,4-dioxo-1,2,3,4-tetrahydrothieno [3,4d]pyrimidine-5-carboxylic acid, in the form of a choline salt over the course of a 12-month treatment period. Patients were administered compound (VI) once daily in an amount of either 100 mg or 200 mg. Patients receiving compound (VI) in a daily amount of 200 mg also received once daily hormonal add-back therapy (ABT), which consisted of […] of β17-estradiol (E2) per day and 0.5 mg of norethindrone acetate (NETA) per day.
# The PRIMROSE 1 study, conducted in the United States, enrolled 526 women. The PRIMROSE 2 study, conducted in the United States and Europe, enrolled 535 women.
# Patients were randomized to one of several cohorts: (i) placebo, (ii) 100 mg/day of compound (VI), or (iii) 200 mg/day of compound (VI). Patients receiving 200 mg/day of compound (VI) also received once-daily ABT containing 1.0 mg E2 and 0.5 mg NETA.
# Patients were assessed for uterine fibroid symptomology at baseline, after 24 weeks of treatment, and again after 52 weeks of treatment. […] Patients were also assessed in order to determine the number of days of uterine bleeding during their last 28-day interval prior to week 24 of treatment with placebo or compound (VI).
# Pain levels were measured using a Verbal Rating Score (VRS), as described herein. Patients were also assessed to determine the proportion that reported an improvement in quality of life using the Uterine Fibroids Symptoms and Health-Related Quality of Life questionnaire.
# To evaluate the safety of compound (VI), patients' bone mineral density levels were measured at baseline and at various timepoints during the studies.
# human GnRH receptor = target: T1, human GnRH receptor (Homo sapiens, UniProt P30968); test: affinity for human GnRH receptor; assay type: binding; conditions: compound (VI) as well as its salts such as the choline salt; kind of constant not stated
# T1 sequence (P30968 1-328): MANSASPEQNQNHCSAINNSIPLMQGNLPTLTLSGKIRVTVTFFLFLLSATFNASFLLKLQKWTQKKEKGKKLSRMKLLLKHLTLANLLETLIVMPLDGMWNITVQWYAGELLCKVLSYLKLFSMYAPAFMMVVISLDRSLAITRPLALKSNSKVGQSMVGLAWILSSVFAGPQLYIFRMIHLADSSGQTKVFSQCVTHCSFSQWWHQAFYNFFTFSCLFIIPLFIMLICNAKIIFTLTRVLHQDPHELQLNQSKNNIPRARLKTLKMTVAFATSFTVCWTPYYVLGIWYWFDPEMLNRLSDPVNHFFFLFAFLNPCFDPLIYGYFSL
smiles,measurement,setting,value
"COc1cc(F)c(-n2c(=O)[nH]c3csc(C(=O)O)c3c2=O)cc1OCc1c(OC)ccc(F)c1F [Compound (VI), 3-[2-fluoro-5-(2,3-difluoro-6-methoxybenzyloxy)4-methoxyphenyl]-2,4-dioxo-1,2,3,4-tetrahydrothieno [3,4d]pyrimidine-5-carboxylic acid]",Overall Pelvic Pain Responder Rate (VRS score reduction of > 30% from baseline),"[1]; 75 mg once daily (choline salt), after 24 weeks of treatment, n = 48",70.8%
same,Overall Pelvic Pain Responder Rate (VRS score reduction of > 30% from baseline),"[1]; 75 mg once daily for 24 weeks, 12 weeks after cessation of treatment, n = 7",87.5%
same,Overall Pelvic Pain Responder Rate (VRS score reduction of > 30% from baseline),"[1]; 200 mg once daily (choline salt), after 24 weeks of treatment, n = 44",77.3%
same,Overall Pelvic Pain Responder Rate (VRS score reduction of > 30% from baseline),"[1]; 200 mg once daily for 24 weeks, 12 weeks after cessation of treatment, n = 10",70.0%
same,"dyspareunia, Verbal Rating Score (VRS)","[1]; after cessation of 24-week once-daily treatment, 12-week portion of follow-up, FIG. 2",sustained reduction
same,"dyschezia, Numerical Rating Score (NRS)","[1]; after cessation of 24-week once-daily treatment, 12-week portion of follow-up, FIG. 3",sustained reduction
same,Bone Mineral Density (Mean % change from baseline),"[1]; 75 mg once daily for 24 weeks, 12 weeks after cessation of treatment",+0.313%
same,Bone Mineral Density (Mean % change from baseline),"[1]; 75 mg once daily, after 24 weeks of treatment",−0.798%
same,Bone Mineral Density (Mean % change from baseline),"[1]; 200 mg once daily for 24 weeks, 12 weeks after cessation of treatment",+1.135%
same,Bone Mineral Density (Mean % change from baseline),"[1]; 200 mg once daily, after 24 weeks of treatment",−2.602%
same,"p value: Improvement in quality of life, Change from baseline in quality of life (QoL) symptom severity score (LS mean)",[2]; 100 mg/day,p = 0.004
same,"p value: Improvement in quality of life, Change from baseline in quality of life (QoL) symptom severity score (LS mean)",[2]; 200 mg/day + once-daily ABT,p < 0.001
same,proportion of patients with menstrual blood loss to a level of 80 mL and a 50% reduction from baseline,"[2]; 52 weeks, 100 mg per day without ABT",53.2%
same,proportion of patients with menstrual blood loss ≤80 mL and ≥50% reduction from baseline,"[2]; 52 weeks, 200 mg per day + ABT",91.6%
same,"bone mineral density, lumbar spine","[2]; once-daily treatment, 24 and 52 weeks, FIG. 9",does not induce a substantial decrease in bone mineral density
same,affinity for human GnRH receptor,human GnRH receptor,27.4 nM
